Measurements reported in patent publication US20090203594A1, “Anticancer peptide” (priority 2004, published 2009).
Where two headings read alike, the source gives them in different places. No end group written: not given here.

Key:
[1] = system: breast cancer GT-MCF-7 cells; test: AlarmarBlue viability assay on GT-MCF-7 cells; format: cell-based, human; details: GT-MCF-7, four-hour treatment
Protocol: (§1) For each cell line, the protocol was the same for determining the effects of pDBD*4R9.
Cells were plated in equal numbers and washed free of growth medium. […]
In the experiment on MCF-7 cells, an equivalent assay (AlarmarBlue) was used.

[2] = system: basal cell carcinoma cells; test: Killing of basal cell carcinoma cells; format: cell-based; details: line of basal cell carcinoma cells
ICR 27 leukemic cells = test: Reduction in ICR 27 leukemic cells by exogenous application of peptide (cell count); format: cell-based, human; details: for Cells/ml after 23 h: 1 h in serum-free medium then growth medium, average of duplicate counts; for cell killing: ICR-27, peptide added exogenously without electroporation
Protocol: At the maximum dose tested in this experiment, pDBD*4R9 caused over a 2-log loss of cells.
At t=0, growing cells were removed from medium, washed, and plated at 4.0×10^6 cells/ml in serum-free medium to which the peptide was added from a stock solution. Control peptide was GnRHR7 (Gonadotropin Releasing Hormone with a 7-arginine polymer added covalently). One hour later cells were diluted into growth medium. After 23 h, each culture was counted in duplicate. Average values are shown. Similar dose-related responses to pDBD*4R9 have been seen in 3 experiments.

CEM cell clone C1-15 = test: Exogenous peptide on CEM clone C1-15; format: cell-based, human; details: CEM clone C1-15, peptide administered exogenously
Protocol: (§2) As shown below, pDBD*R9 was administered to CEM cell clones ICR-27, C7-14, and C1-15. Two of these clones are resistant to the synthetic glucocorticoid dexamethasone, commonly used in the treatment of acute lymphoblastic leukemia.

[3] = system: human leukemic CEM C714 cells; test: Exogenous peptide on CEM C7-14 leukemic cells (WST viability); format: cell-based
Protocol: as §2, §1
(§3) Cells were plated in equal numbers and washed free of growth medium.
(§4) The peptide pDBD*4R9 was then added to the cells for one hour, after which they were returned to growth medium.
(§5) At a suitable interval thereafter, they were assayed for viability by use of the WST assay (described above), which measures the ability of viable cells' mitochondria to metabolize and therefore change the color of a water soluble tetrazolium dye (WST). By measuring the absorbance of the color, one has a quantitative correlate of viability: More absorbance=more viable cells.

[4] = system: MCF-7 breast cancer cells; test: WST-1 dye reduction viability assay, MCF-7; format: cell-based, human
Protocol: (§6) A more quantitative assay was carried out using as an endpoint the reduction of a water-soluble tetrazolium dye (WST-1). This method has been employed to follow the effects of various chemotherapeutic agents on malignant cells (Hwang, W. S., Chen, L. M., Huang, S. H., Wang, C. C., Tseng, M. T. Prediction of chemotherapy response in human leukemia using in vitro chemosensitivity test. Leuk Res. 17:685-688, 1993; Pieters, R., Loonen, A. H., Huismans, D. R., Broekema, G. J., Dirven, M. W., Heyenbrok, M. W., Hahlen, K., Veerman, A. J. In vitro drug sensitivity of cells with children with leukemia using the MTT assay with approved culture conditions. Blood 76:2327-2336, 1990).
(§7) Viable cells can reduce the dye; dead cells cannot. The effects on pDBD*4R9 on MCF-7 breast cancer cells and non-malignant NIH-3T3 cells were compared (Table 2).
(§8) 20,000 cells were plated in triplicate in a 96 well plate. 24 hr later, cells were washed once and growth medium was replaced with serum free medium containing pDBD*4R9 (termed ‘Frag49’ in the table) or no peptide (Control) and placed in a tissue culture incubator at 37 deg. After 1 hr, serum-containing medium was added to each well and the plates were reincubated for 5 hr. 20 μl of WST-1 dye was then added to each well, and 4 hr later, Absorbance at 450-595 nm was determined spectrophotometrically. A chemical blank (avg. of 4 wells, medium plus dye only) was subtracted from each raw score.

[5] = system: non-malignant NIH-3T3 cells; test: WST-1 dye reduction viability assay, NIH-3T3; format: cell-based
Protocol: as §6, §7, §8

[6] = system: colon cancer line, CaCo-2; test: WST viability assay, colon cancer line; format: cell-based
Protocol: as §1, §3, §4, §5

[7] = system: MCF-7 breast cancer cells; test: Killing of MCF-7 breast cancer cells (qualitative); format: cell-based, human
SWB-39 glioma = test: Killing of SWB-39 glioma cells; format: cell-based
[8] = system: CEM C7-14 lymphoblastic clonal cell line; test: Electroporation of pDBD*4 into CEM C7-14 cells, cell death; format: cell-based, human; details: transfected by electroporation
Excerpt: (§9) Derivation of ICR-27 cells is found in Molecular & Cellular Biology (1981) 1:512-21 and of CEM1-15 and CEM7-14 in Genomics (2003) 81:175-97.

[9] = system: cell clones from the CEM leukemic cell system; test: pDBD*4 in glucocorticoid-susceptible and -resistant clones of the CEM leukemic cell system; format: cell-based, human
Protocol: pDBD*4 was tested in cell clones from the CEM leukemic cell system. Some of those clones are susceptible to apoptotic cell death evoked by steroids of the glucocorticoid class; others are not. Both types of clones were killed by electroporation of pDBD*4 into the cells, whereas exogenous application of pDBD*4 produced no effect.

[10] = system: ICR-27 lymphoblastic clonal cell line; test: Electroporation of pDBD*4 into ICR-27 cells, cell death; format: cell-based, human; details: transfected by electroporation
Protocol: FIG. 1 (A and B). Human leukemic ICR-27-4 cells were electroporated (500 μF, 300V) with 2 μg pDBD*4 peptide or without peptide (Control). Equal concentrations of cells were then plated and quantified for viable cell numbers over time.
as §9
Equal concentrations of cells were then plated.
In FIG. 1A, cell viability was evaluated after 4 hr using the WST-1 dye reduction assay (8,9). Quadruplicate wells of a 96 well plate each received 200 μl of cells plus 20 μl of WST-1 dye. The plate was then placed in a tissue culture incubator for 4 hours. Spectrophotometric analysis was carried out on a plate reader with Absorbance read at 450-595 nm. Absorbancies were corrected for the average of triplicate chemical blanks (200 μl growth medium plus 20 μl WST-1 dye). Data are presented as percent of control.
In FIG. 1B, cell concentrations were determined after 4 hr. and 24 hr. by hemocytometer counts of duplicate aliquots, with trypan blue dye added in the 24 hr samples to discriminate non-viable, but membrane-intact cells.

[11] = system: CEM 1-15 lymphoblastic clonal cell line; test: Electroporation of pDBD*4 into CEM 1-15 cells, cell death; format: cell-based, human; details: transfected by electroporation
Excerpt: as §9

[12] = MCF-7, 1 h peptide, 5 h reincubation, 4 h dye, blank subtracted
[13] = NIH-3T3, 1 h peptide, 5 h reincubation, 4 h dye, blank subtracted

## RRRRRRRRRYLCAGRNDCIIAIKFEEKTAQHAAIENVFRLE (cysteines drawn unpaired) [pDBD*4R9]
[1]
  anticancer effect (FIG. 2): significant anticancer effects
[2]
  killing activity / cell death: caused death
[2]; listed as pDBD*R9
  killing activity / cell death: Killing activity
ICR 27 leukemic cells; 5 μM peptide
  Cells/ml after 23 h: 1.8 × 10^5 Cells/ml
ICR 27 leukemic cells; 10 μM peptide
  Cells/ml after 23 h: 1.95 × 10^5 Cells/ml
ICR 27 leukemic cells; 20 μM peptide
  Cells/ml after 23 h: 0.5 × 10^5 Cells/ml
ICR 27 leukemic cells; ICR27-4, increasing concentrations
  cell loss / growth inhibition with increasing concentrations: caused cell loss in a dose-dependent manner
ICR 27 leukemic cells; ICR27-4, maximum dose tested
  loss of cells: > 2 log
ICR 27 leukemic cells
  cell killing: killed the cells in a dose dependent manner
ICR 27 leukemic cells; listed as pDBD*R9
  cell killing: killed in a dose-dependent manner
CEM cell clone C1-15
  cell killing: killed in a dose-dependent manner
[3]; CEM C714 cells
  anticancer effect (FIG. 3): significant anticancer effects
[3]; CEM clone C7-14, peptide administered exogenously
  cell killing: killed in a dose-dependent manner
[4]; MCF-7, dose of Table 2
  average reduction in ability to metabolize the tetrazolium dye: over 3 fold
[4]; [12]
  WST-1 Absorbance, 450-595 nm, Well 1: 0.045
  WST-1 Absorbance, 450-595 nm, Well 2: 0.087
  WST-1 Absorbance, 450-595 nm, Well 3: 0.289
[4]; MCF-7, average of 3 wells
  WST-1 Absorbance, 450-595 nm, Avg.: 0.140
[5]; NIH-3T3, dose of Table 2
  metabolism of the tetrazolium dye: not significantly altered
[5]; [13]
  WST-1 Absorbance, 450-595 nm, Well 1: 0.199
  WST-1 Absorbance, 450-595 nm, Well 2: 0.216
  WST-1 Absorbance, 450-595 nm, Well 3: 0.196
[5]; NIH-3T3, average of 3 wells
  WST-1 Absorbance, 450-595 nm, Avg.: 0.204
[6]; Expt 1, 25 microM, duplicates, avg +/- range
  Absorbance: 0.08 +/− 0.01
[6]; Expt 1, 50 microM, duplicates, avg +/- range
  Absorbance: 0.16 +/− 0.005
[6]; Expt 2, 100 microM, triplicates, avg +/- 1 SD
  Absorbance: 0.19 +/− 0.05
[6]; colon cancer cells, single treatment, 25-100 microM
  estimated cell kill: 50-75%
[7]
  killing activity / cell death: caused death
[7]; listed as pDBD*R9
  killing activity / cell death: Killing activity
SWB-39 glioma
  killing activity / cell death: caused death
SWB-39 glioma; listed as pDBD*R9
  killing activity / cell death: Killing activity

## tyr-leu-cys-ala-gly-arg-asn-asp-cys-ile-ile-ala-ile-lys-phe-glu-glu-lys-thr-ala-gln-his-ala-ala-ile-glu-asn-val-phe-arg-leu-glu (YLCAGRNDCIIAIKFEEKTAQHAAIENVFRLE) [pDBD*4, 32-amino acid synthetic polypeptide, portion of the 89 aa peptide encoded by gene 398-465*]
[8]
  cell death: causes cell death
ICR 27 leukemic cells
  cell killing: did not
[9]; electroporation into glucocorticoid-susceptible and non-susceptible CEM clones
  cell killing: killed
[9]; exogenous application, CEM clones
  effect on cells: no effect
[10]
  cell death: causes cell death
[11]
  cell death: causes cell death
